Series [1] has as its system HBV AD38 viral particles in HepG2 cell line overexpressing NTCP. The series can be described thus: HBV DNA Quantification Assay. Format: cell-based. The note with it: Hepatitis B virus, HepG2, 120 h, HBV-infected HepG2-NTCP cells, 5 days incubation, HBV DNA in culture supernatant (QuantiGene 2.0); geometric mean of a minimum of four determinations. In outline:
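NTCP-overexpressing HepG2 cells infected with AD38 virus at 4000 genome equivalents/cell for 4 days, then reseeded with serially diluted compound in DMEM, 2% FBS, 1% DMSO for 5 days.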

Series [2] in a line: Hepatic Stability Assay (in vitro half-life method). Type of series: in vitro ADME. Further details: dose or concentration left out as unconfirmed. The note with it: pooled cryopreserved hepatocytes, 37° C., 1×10^6 cells/mL, 0-6 hours, LC-MS/MS, 39.5 hours is the maximum detectable half life, read-out: t½ (converted). An outline of the steps:
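Pooled cryopreserved hepatocytes (1×10^6 cells/mL) incubated with compound at […] test concentration, 37° C.; samples at 0, 1, 3 and 6 h quantified by LC-MS/MS. Half-life from rate of compound disappearance, scaled to predicted hepatic clearance via well-stirred model.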

The structures appear in SMILES notation.

For the compound `Cc1c(C(=O)C(=O)NC2(c3c[nH]nn3)CC(F)(F)C2)c2n(c1C(=O)Nc1ccc(F)cc1)C[C@H](F)C2` [Example 48, (R)-7-(2-((3,3-difluoro-1-(1H-1,2,3-triazol-4-yl)cyclobutyl)amino)-2-oxoacetyl)-2-fluoro-N-(4-fluorophenyl)-6-methyl-2,3-dihydro-1H-pyrrolizine-5-carboxamide], the EC50 in series [1] was 6.5 nM. Also, in series [2], the half-life was 474 min.

As to `Cc1c(C(=O)C(=O)NC2(c3c[nH]nn3)CC2)c2n(c1C(=O)Nc1ccc(F)c(Cl)c1)[C@@H]1C[C@@H]1C2` [Example 52, (1aR,6aR)-5-(2-((1-(1H-1,2,3-triazol-4-yl)cyclopropyl)amino)-2-oxoacetyl)-N-(3-chloro-4-fluorophenyl)-4-methyl-1,1a,6,6a-tetrahydrocyclopropa[b]pyrrolizine-3-carboxamide], the 50% effective concentration (EC50) in series [1] is 7.7 nM. For the same compound, the half-life in series [2] is 252 min.

As to `Cc1c(C(=O)C(=O)NC2(c3c[nH]nn3)CC(F)(F)C2)c2n(c1C(=O)Nc1cc(F)c(F)c(F)c1)CCC2` [Example 53, 7-(2-((3,3-difluoro-1-(1H-1,2,3-triazol-4-yl)cyclobutyl)amino)-2-oxoacetyl)-6-methyl-N-(3,4,5-trifluorophenyl)-2,3-dihydro-1H-pyrrolizine-5-carboxamide], the concentration for a half-maximal effect (EC50) in series [1] came out at 3.2 nM. Moreover, the half-life in series [2] was 648 min.

On to `Cc1c(C(=O)C(=O)NC2(c3nncs3)CC2)c2n(c1C(=O)Nc1ccc(F)c(Cl)c1)[C@@H]1C[C@@H]1C2` [Example 54, (1aR,6aR)-5-(2-((1-(1,3,4-thiadiazol-2-yl)cyclopropyl)amino)-2-oxoacetyl)-N-(3-chloro-4-fluorophenyl)-4-methyl-1,1a,6,6a-tetrahydrocyclopropa[b]pyrrolizine-3-carboxamide], for which the half-maximal effective concentration (EC50) in series [1] was found to be 7.8 nM. Also, in series [2], the half-life was 402 min.

For the compound `Cc1c(C(=O)C(=O)NC2(c3nncs3)CC2)c2n(c1C(=O)Nc1cc(F)c(F)c(F)c1)[C@@H]1C[C@@H]1C2` [Example 57, (1aR,6aR)-5-(2-((1-(1,3,4-thiadiazol-2-yl)cyclopropyl)amino)-2-oxoacetyl)-4-methyl-N-(3,4,5-trifluorophenyl)-1,1a,6,6a-tetrahydrocyclopropa[b]pyrrolizine-3-carboxamide], in series [1], a half-maximal response (EC50) required 9.9 nM. Further, the half-life in series [2] was 480 min.

On to `C#CC1(NC(=O)C(=O)c2c(C)c(C(=O)Nc3ccc(F)c(Cl)c3)n3c2CCC3)CC(F)(F)C1` [Example 60, N-(3-chloro-4-fluorophenyl)-7-(2-((1-ethynyl-3,3-difluorocyclobutyl)amino)-2-oxoacetyl)-6-methyl-2,3-dihydro-1H-pyrrolizine-5-carboxamide], for which the response in series [1] was half-maximal at 1.8 nM (EC50). Besides, the half-life in series [2] is 234 min.

`Cc1c(C(=O)C(=O)NC2(c3ccccc3)CC2)c2n(c1C(=O)Nc1ccc(F)c(Cl)c1)CCC2` [Example 66, N-(3-chloro-4-fluorophenyl)-6-methyl-7-(2-oxo-2-((1-phenylcyclopropyl)amino)acetyl)-2,3-dihydro-1H-pyrrolizine-5-carboxamide]: the EC50 in series [1] amounted to 6.5 nM. Besides, the half-life in series [2] is 84 min.

Regarding `Cc1c(C(=O)C(=O)NC2(c3nncs3)CC2)c2n(c1C(=O)Nc1ccnc(C(F)F)c1F)[C@@H]1C[C@@H]1C2` [Example 68, (1aR,6aR)-5-(2-((1-(1,3,4-thiadiazol-2-yl)cyclopropyl)amino)-2-oxoacetyl)-N-(2-(difluoromethyl)-3-fluoropyridin-4-yl)-4-methyl-1,1a,6,6a-tetrahydrocyclopropa[b]pyrrolizine-3-carboxamide], it took 110 nM to reach a half-maximal effect in series [1] (EC50). Further, in series [2], the half-life was 312 min.

In series [1], `Cc1c(C(=O)C(=O)NC2(c3c[nH]nn3)CC2)c2n(c1C(=O)Nc1cccc(Cl)c1)CCC2` [Example 74, 7-(2-((1-(1H-1,2,3-triazol-4-yl)cyclopropyl)amino)-2-oxoacetyl)-N-(3-chlorophenyl)-6-methyl-2,3-dihydro-1H-pyrrolizine-5-carboxamide] displayed an EC50 of 42 nM. Also, the half-life in series [2] is 1330 min.

With `Cc1c(C(=O)C(=O)NC2(c3c[nH]nn3)CC2)c2n(c1C(=O)Nc1cccc(C#N)c1)CCC2` [Example 75, 7-(2-((1-(1H-1,2,3-triazol-4-yl)cyclopropyl)amino)-2-oxoacetyl)-N-(3-cyanophenyl)-6-methyl-2,3-dihydro-1H-pyrrolizine-5-carboxamide], the half-maximal effective concentration (EC50) in series [1] stood at 106 nM. In series [2], the half-life was 1040 min.

Consider `Cc1c(C(=O)C(=O)NC2(c3c[nH]nn3)CC2)c2n(c1C(=O)Nc1ccc(F)c(C(F)F)c1)CCC2` [Example 77, 7-(2-((1-(1H-1,2,3-triazol-4-yl)cyclopropyl)amino)-2-oxoacetyl)-N-(3-(difluoromethyl)-4-fluorophenyl)-6-methyl-2,3-dihydro-1H-pyrrolizine-5-carboxamide], for which a half-maximal effect in series [1] (EC50) was put at 19 nM. Further, in series [2], the half-life is 1330 min.

Compound `Cc1c(C(=O)C(=O)NC2(c3c[nH]nn3)CC(F)(F)C2)c2n(c1C(=O)Nc1ccnc(C(F)F)c1F)[C@@H]1C[C@@H]1C2` [Example 80, (1aR,6aR)-5-(2-((3,3-difluoro-1-(1H-1,2,3-triazol-4-yl)cyclobutyl)amino)-2-oxoacetyl)-N-(2-(difluoromethyl)-3-fluoropyridin-4-yl)-4-methyl-1,1a,6,6a-tetrahydrocyclopropa[b]pyrrolizine-3-carboxamide] had an EC50 in series [1] of 8.7 nM. In addition, the half-life in series [2] was 378 min.

In series [1], `CNC(=O)C(C)(C)NC(=O)C(=O)c1c(C)c(C(=O)Nc2cc(F)c(F)c(F)c2)n2c1CCC2` [Example 83, 6-methyl-7-(2-((2-methyl-1-(methylamino)-1-oxopropan-2-yl)amino)-2-oxoacetyl)-N-(3,4,5-trifluorophenyl)-2,3-dihydro-1H-pyrrolizine-5-carboxamide] yielded an EC50 of 199 nM. Further, the half-life in series [2] was 1150 min.

In the case of `Cc1c(C(=O)C(=O)NC2(c3cnn[nH]3)CC2)c2n(c1C(=O)Nc1ccc(F)c(Cl)c1F)CCC2` [Example 84, 7-(2-((1-(1H-1,2,3-triazol-5-yl)cyclopropyl)amino)-2-oxoacetyl)-N-(3-chloro-2,4-difluorophenyl)-6-methyl-2,3-dihydro-1H-pyrrolizine-5-carboxamide], the midpoint of the response in series [1], the EC50, lay at 31 nM. Also, in series [2], the half-life is 642 min.

In turn, `Cc1c(C(=O)C(=O)NC2(c3c[nH]nn3)COC2)c2n(c1C(=O)Nc1ccc(F)c(F)c1)[C@@H]1C[C@@H]1C2` [Example 87, (1aR,6aR)-5-(2-((3-(1H-1,2,3-triazol-4-yl)oxetan-3-yl)amino)-2-oxoacetyl)-N-(3,4-difluorophenyl)-4-methyl-1,1a,6,6a-tetrahydrocyclopropa[b]pyrrolizine-3-carboxamide] registered an EC50 in series [1] of 12.5 nM. Besides, in series [2], the half-life was 378 min.

In the case of `Cc1c(C(=O)C(=O)NC2(c3c[nH]nn3)COC2)c2n(c1C(=O)Nc1ccc(F)c(Cl)c1)CCC2` [Example 88, 7-(2-((3-(1H-1,2,3-triazol-4-yl)oxetan-3-yl)amino)-2-oxoacetyl)-N-(3-chloro-4-fluorophenyl)-6-methyl-2,3-dihydro-1H-pyrrolizine-5-carboxamide], the 50% effective concentration (EC50) in series [1] came out at 8.7 nM. For the same compound, in series [2], the half-life was 594 min.

With `Cc1c(C(=O)C(=O)NC2(c3c[nH]nn3)CC(F)(F)C2)c2n(c1C(=O)Nc1ccc(F)c(C(F)F)c1)CCC2` [Example 89, 7-(2-((3,3-difluoro-1-(1H-1,2,3-triazol-4-yl)cyclobutyl)amino)-2-oxoacetyl)-N-(3-(difluoromethyl)-4-fluorophenyl)-6-methyl-2,3-dihydro-1H-pyrrolizine-5-carboxamide], the EC50 in series [1] came to 2.9 nM. For the same compound, the half-life in series [2] is 618 min.

In the case of `Cc1c(C(=O)C(=O)NC2(c3c[nH]nn3)CC2)c2n(c1C(=O)Nc1cc(F)c(F)cc1F)CCC2` [Example 90, 7-(2-((1-(1H-1,2,3-triazol-4-yl)cyclopropyl)amino)-2-oxoacetyl)-6-methyl-N-(2,4,5-trifluorophenyl)-2,3-dihydro-1H-pyrrolizine-5-carboxamide], the EC50 in series [1] amounted to 183 nM. Also, the half-life in series [2] was 1880 min.

In series [1], `C#CC1(NC(=O)C(=O)c2c(C)c(C(=O)Nc3cc(F)c(F)c(F)c3)n3c2CCC3)CC1` [Example 92, 7-(2-((1-ethynylcyclopropyl)amino)-2-oxoacetyl)-6-methyl-N-(3,4,5-trifluorophenyl)-2,3-dihydro-1H-pyrrolizine-5-carboxamide] came in with an EC50 of 6.4 nM. Moreover, the half-life in series [2] was 132 min.

Turning to `Cc1c(C(=O)C(=O)NC2(c3cnn[nH]3)CC2)c2n(c1C(=O)Nc1ccc(F)cc1F)CCC2` [Example 93, 7-(2-((1-(1H-1,2,3-triazol-5-yl)cyclopropyl)amino)-2-oxoacetyl)-N-(2,4-difluorophenyl)-6-methyl-2,3-dihydro-1H-pyrrolizine-5-carboxamide], in series [1], the concentration giving a half-maximal response (EC50) stood at 254 nM. For the same compound, in series [2], the half-life was 1790 min.

`C#CC1(NC(=O)C(=O)c2c(C)c(C(=O)Nc3ccc(F)c(Cl)c3)n3c2CCC3)CC1` [Example 94, N-(3-chloro-4-fluorophenyl)-7-(2-((1-ethynylcyclopropyl)amino)-2-oxoacetyl)-6-methyl-2,3-dihydro-1H-pyrrolizine-5-carboxamide] had a concentration giving a half-maximal response (EC50) in series [1] of 5.8 nM. The half-life in series [2] is 174 min.

Turning to `Cc1c(C(=O)C(=O)NC2(c3cnn[nH]3)CC(F)(F)C2)c2n(c1C(=O)Nc1ccc(F)cc1)[C@@H]1C[C@@H]1C2` [Example 100, (1aR,6aR)-5-(2-((3,3-difluoro-1-(1H-1,2,3-triazol-5-yl)cyclobutyl)amino)-2-oxoacetyl)-N-(4-fluorophenyl)-4-methyl-1,1a,6,6a-tetrahydrocyclopropa[b]pyrrolizine-3-carboxamide], in series [1], a half-maximal response (EC50) required 3.7 nM. Besides, the half-life in series [2] is 186 min.

As usually defined, the EC50 is the midpoint of the concentration-response curve.

These data come from patent US10328053B2 (Gilead Sciences, Inc., priority 2016, dated 2019).
